From PubChem BioAssay (NCI) come the findings set out here.

“And” between values parts separate entries of the source, which are not always exact repeats. Equal values may be shown once.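 Dose response: 5 concentrations. Exposure: 48 h. Format: 96-well plates. Endpoint: linear interpolation; highest concentration if not reached. Abbreviation: GI50, concentration required for 50% inhibition of growth. The concentration for full growth arrest is given as TGI.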 Some results are limits rather than exact numbers.

Some test systems named below: ACHN renal; EKVX NSCLC; HCC-2998 colon; NCI-H226 lung; NCI/ADR-RES ovarian; SF-295 CNS; SNB-75 CNS; UO-31 renal; HOP-18 NSCLC; LXFL 529 NSCLC.
Assay in all cases: DTP human tumour cell line panel, 48 h

One may read the GI50 as the concentration giving 50% growth inhibition. Usually TGI stands for the concentration giving total growth inhibition. With `N#Cc1c(-c2ccccc2)cc(-c2ccc(Nc3nc(Nc4ccc(Cl)cc4)nc(Nc4ccc(Cl)cc4)n3)cc2)nc1N`, the GI50 was 1.64 µM with ACHN renal; 16.6 µM in the test with EKVX NSCLC; 7 µM with HCC-2998 colon; 1.73 µM in the test with NCI-H226 lung; 16.2 µM in the test with NCI/ADR-RES ovarian; 10.3 µM in the test with SF-295 CNS. For the same compound, the GI50 with SNB-75 CNS was 2.65 µM; in the test on UO-31 renal, 1.1 µM. In addition, the total growth inhibition concentration (TGI) is 3.26 µM with ACHN renal; 48.8 µM in the test with EKVX NSCLC; 35.5 µM in the test on HCC-2998 colon; 3.75 µM with NCI-H226 lung; more than 100 µM in the test with NCI/ADR-RES ovarian; 43.6 µM in the test on SF-295 CNS. Moreover, the results for the TGI in the test with SNB-75 CNS and in the test on UO-31 renal were 14.4 µM and 2.33 µM, respectively.
In the case of `C#CC1(O)C(COP(=O)(O)OC2CC(n3cc(F)c(=O)[nH]c3=O)OC2CO)OC(n2ccc(N)nc2=O)C1O` (configuration not stated), the GI50 in the test with ACHN renal was less than 0.01 µM; in the test on EKVX NSCLC it was 0.738 µM; in the test with HCC-2998 colon, less than 0.01 µM; in the test on NCI-H226 lung it was 0.0614 µM; in the test on NCI/ADR-RES ovarian, less than 0.012 µM; in the test on SF-295 CNS, less than 0.01 µM. The GI50 in the test on SNB-75 CNS was less than 0.0169 µM; with UO-31 renal, less than 0.0128 µM. Also, the concentration for total growth inhibition (TGI) in the test on EKVX NSCLC was 16 µM; with HCC-2998 colon, 0.431 µM; in the test with NCI-H226 lung, more than 36.1 µM; in the test with SNB-75 CNS, 1.18 µM.
For the compound `CN1NC2(CCCCC2)ON=C1c1ccccc1`, the TGI in the test on ACHN renal, in the test with EKVX NSCLC, in the test with HOP-18 NSCLC, in the test with NCI-H226 lung, in the test on SF-295 CNS and in the test with SNB-75 CNS was more than 100 µM in each case.
As for `O=c1cc2ccccc2nn1Cc1ccccc1Cl`, the TGI with ACHN renal, with EKVX NSCLC, with HCC-2998 colon, in the test with HOP-18 NSCLC, in the test with NCI-H226 lung and with SF-295 CNS was more than 100 µM throughout. The TGI with SNB-75 CNS is 93.8 µM; in the test on UO-31 renal, more than 100 µM.
As for `O=C(c1ccc2ncc(-c3nc(NC4CC4)ncc3F)n2c1)N1CCOCC1`, the GI50 is 1.56 µM in the test on ACHN renal; 2.85 µM in the test with EKVX NSCLC; 3.01 µM in the test with HCC-2998 colon; 2.05 µM in the test on NCI-H226 lung; 2.92 µM in the test on NCI/ADR-RES ovarian; 2.64 µM with SF-295 CNS. Moreover, the GI50 in the test on SNB-75 CNS is 1.47 µM; in the test with UO-31 renal it was 2.66 µM. Further, the total growth inhibition concentration (TGI) in the test on ACHN renal is 12.4 µM; in the test on EKVX NSCLC, 71.7 µM; in the test with HCC-2998 colon it was 8.99 µM; in the test on NCI-H226 lung, 6.39 µM; in the test on NCI/ADR-RES ovarian, 19.2 µM; in the test with SF-295 CNS it was more than 100 µM. The TGI with SNB-75 CNS is 3.58 µM; in the test on UO-31 renal it was 13.6 µM.
With `O=C(O)/C(=C/c1c(O)ccc2ccccc12)c1csc(-c2nc(/C(=C\c3c(O)ccc4ccccc34)C(=O)O)cs2)n1`, the total growth inhibition concentration (TGI) is 18.8 µM with ACHN renal; more than 100 µM in the test on EKVX NSCLC; 32.4 µM in the test with HCC-2998 colon; 29.8 µM in the test with LXFL 529 NSCLC; 7.39 µM in the test with NCI-H226 lung; 28.5 µM in the test with SF-295 CNS. Further, the TGI in the test with SNB-75 CNS stood at 23.2 µM; in the test on UO-31 renal, 6.87 µM.
As for `CO/C1=C\C(C)=C\C(C)C(O)C(C)C/C(C)=C/C=C/C(OC)C(C(C)C(O)C(C)C2(O)CC(O)C(C)C(C(C)C)O2)OC1=O` (configuration not stated), the concentration for total growth inhibition (TGI) in the test on ACHN renal is 13.2 µM; in the test with EKVX NSCLC it was 4.93 µM; in the test on HCC-2998 colon it was 12.2 µM; in the test on HOP-18 NSCLC, 21.9 µM; in the test on SF-295 CNS, 0.0215 µM and 0.0198 µM; with UO-31 renal it was 0.0587 µM and 0.0234 µM. The GI50 with SNB-75 CNS is 0.0396 µM.
For `OCCSCc1ccccc1`, the TGI in the test on ACHN renal, in the test with EKVX NSCLC, in the test with HCC-2998 colon, in the test on NCI-H226 lung, in the test with NCI/ADR-RES ovarian and in the test on SF-295 CNS was more than 100 µM in each case. Also, the total growth inhibition concentration (TGI) in the test on SNB-75 CNS and in the test with UO-31 renal was more than 100 µM in each case.
Consider `CN(C)N1C(=O)c2ccccc2NC1c1ccccc1` (configuration not stated), for which the TGI in the test with ACHN renal, in the test on EKVX NSCLC, with HCC-2998 colon, with NCI-H226 lung, in the test with NCI/ADR-RES ovarian and with SF-295 CNS was more than 100 µM in each case. For the same compound, the TGI in the test with SNB-75 CNS and with UO-31 renal was more than 100 µM throughout.
`CC(C)c1ccc(C(=O)Nc2sc3c(c2C#N)CCC(=O)C3)cc1`: the GI50 in the test with ACHN renal was 0.33 µM; with EKVX NSCLC it was 1.94 µM; with HCC-2998 colon, 1.94 µM; in the test with NCI-H226 lung it was 3.88 µM; with NCI/ADR-RES ovarian, 0.464 µM; with SF-295 CNS, 1.36 µM. The GI50 with SNB-75 CNS is 0.601 µM; in the test with UO-31 renal, 0.252 µM. The TGI with ACHN renal was 1.06 µM; in the test on EKVX NSCLC it was more than 88.8 µM; with HCC-2998 colon, more than 37.4 µM; in the test on NCI-H226 lung, 16.3 µM; with NCI/ADR-RES ovarian it was 11.2 µM; with SF-295 CNS, more than 28.1 µM. The TGI with SNB-75 CNS turned out to be 5.38 µM; with UO-31 renal, 0.982 µM.
`CCN1C(=S)N(CC)C2C1NC(=S)N2/N=C/C=C/c1ccccc1` (configuration not stated): the GI50 with ACHN renal is 4.87 µM; in the test with EKVX NSCLC it was 4.19 µM; with HCC-2998 colon it was 2.84 µM; in the test on NCI-H226 lung it was 6.73 µM; with NCI/ADR-RES ovarian, 1.54 µM; with SF-295 CNS it was 1.04 µM. For the same compound, the GI50 in the test with SNB-75 CNS was 1.09 µM; with UO-31 renal, 3.55 µM. For the same compound, the TGI worked out at 18.9 µM in the test with ACHN renal; 34.7 µM in the test on EKVX NSCLC; 16.9 µM with HCC-2998 colon; 24.4 µM in the test on NCI-H226 lung; 12.6 µM in the test on NCI/ADR-RES ovarian; 11.8 µM in the test with SF-295 CNS. Further, the TGI in the test on SNB-75 CNS was determined as 5.65 µM; in the test on UO-31 renal, 18.3 µM.
As to `CC/C=C\C[C@H](O)C/C=C1/C(=O)C=C[C@@H]1C/C=C\CCCC(=O)N(C)C`, the GI50 was 1.45 µM in the test with ACHN renal; 3.92 µM in the test with EKVX NSCLC; 1.77 µM in the test with HCC-2998 colon; 2.57 µM with NCI-H226 lung; 1.08 µM in the test on NCI/ADR-RES ovarian; 2.97 µM in the test with SF-295 CNS. In addition, the figures for the GI50 in the test with SNB-75 CNS and in the test on UO-31 renal were 10.9 µM and 1.41 µM, respectively. The TGI with ACHN renal worked out at 3.43 µM; in the test on EKVX NSCLC, 15.6 µM; in the test on HCC-2998 colon it was 3.2 µM; in the test with NCI-H226 lung, 7.84 µM; in the test on NCI/ADR-RES ovarian, 7.9 µM; in the test on SF-295 CNS, 11.1 µM. Besides, the total growth inhibition concentration (TGI) with SNB-75 CNS was found to be 33.4 µM; in the test on UO-31 renal it was 2.93 µM.
